Key:
Leishmania mexicana [1] = assay: Tested for inhibition of growth Leishmania mexicana in a pathogen cell culture assay; format: functional; conditions: read-out: ED50 (the source's name)
NIH3T3 = assay: Tested for inhibition of growth of NIH3T3 cells a in a pathogen cell culture assay; format: functional; conditions: Mus musculus, read-out: ED50 (the source's name)
Pneumocystis carinii [2] = assay: Tested for inhibition of growth Pneumocystis carinii in a pathogen cell culture assay, at a concentration of 10 uM; format: functional
Trypanosoma cruzi [3] = assay: Tested for inhibition of growth Trypanosoma cruzi in a pathogen cell culture assay; format: functional; conditions: read-out: ED50 (the source's name)
Trypanosoma brucei [4] = assay: Tested for inhibition of growth Trypanosoma brucei in a pathogen cell culture assay; format: functional; conditions: read-out: ED50 (the source's name)
Toxoplasma gondii [5] = assay: Tested for inhibition of growth Toxoplasma gondii in a pathogen cell culture assay, at a concentration of 10 uM; format: functional
Lanosterol synthase = molecular target: T1, Lanosterol synthase (Rattus norvegicus, UniProt P48450); assay: Tested for Oxidosqualene-lanosterol cyclase inhibition in rat
T1 sequence (P48450 whole entry): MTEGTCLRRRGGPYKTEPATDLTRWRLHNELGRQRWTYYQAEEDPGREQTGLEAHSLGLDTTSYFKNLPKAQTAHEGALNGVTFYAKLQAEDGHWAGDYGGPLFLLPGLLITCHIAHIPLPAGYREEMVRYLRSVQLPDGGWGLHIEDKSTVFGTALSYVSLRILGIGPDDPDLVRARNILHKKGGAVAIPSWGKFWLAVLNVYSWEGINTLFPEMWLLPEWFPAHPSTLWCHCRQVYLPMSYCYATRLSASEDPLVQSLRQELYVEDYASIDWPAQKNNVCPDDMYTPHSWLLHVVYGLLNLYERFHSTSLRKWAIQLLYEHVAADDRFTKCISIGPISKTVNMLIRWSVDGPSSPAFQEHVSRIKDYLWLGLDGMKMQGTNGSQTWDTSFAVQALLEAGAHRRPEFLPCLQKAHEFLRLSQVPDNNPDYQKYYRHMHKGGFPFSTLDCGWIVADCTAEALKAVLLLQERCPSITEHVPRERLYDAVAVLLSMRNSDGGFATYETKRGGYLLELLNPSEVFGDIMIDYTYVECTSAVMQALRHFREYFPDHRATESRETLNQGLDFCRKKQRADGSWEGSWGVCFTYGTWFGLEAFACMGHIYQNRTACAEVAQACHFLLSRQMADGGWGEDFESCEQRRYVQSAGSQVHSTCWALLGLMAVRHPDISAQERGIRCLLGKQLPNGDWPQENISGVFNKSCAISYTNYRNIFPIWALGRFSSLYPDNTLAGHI

Leishmania mexicana [6] = assay: Tested for inhibition of growth of Leishmania mexicana in a pathogen cell culture assay; format: functional; conditions: read-out: ED50 (the source's name)
Pneumocystis carinii [7] = assay: Tested for inhibition of growth of Pneumocystis carinii in a pathogen cell culture assay, at a concentration of 10 uM; format: functional
Trypanosoma cruzi [8] = assay: Tested for inhibition of growth of Trypanosoma cruzi in a pathogen cell culture assay; format: functional; conditions: read-out: ED50 (the source's name)
Trypanosoma brucei [9] = assay: Tested for inhibition of growth of Trypanosoma brucei in a pathogen cell culture assay; format: functional; conditions: read-out: ED50 (the source's name)
Toxoplasma gondii [10] = assay: Tested for inhibition of growth of Toxoplasma gondii in a pathogen cell culture assay, at a concentration of 10 uM; format: functional

In the case of `CN(C)CCCOc1ccc(C(=O)c2ccc(Cl)cc2)cc1`, the EC50 (Leishmania mexicana [1]) is reported as 0.4 µM, the EC50 (NIH3T3) is reported as greater than 10 µM and the inhibition at 10 µM (Pneumocystis carinii [2]) is reported as 95%. The EC50 (Trypanosoma cruzi [3]) was 1 µM, the EC50 (Trypanosoma brucei [4]) was greater than 10 µM and the inhibition at 10 µM (Toxoplasma gondii [5]) was 17%.

In the case of `CCN(CC)CCOc1ccc(-c2ccccc2)cc1`, the EC50 (Leishmania mexicana [1]) is reported as 10 µM, the EC50 (NIH3T3) is reported as greater than 10 µM and the inhibition at 10 µM (Pneumocystis carinii [2]) is reported as 95%. The EC50 (Trypanosoma cruzi [3]) was greater than 10 µM, the EC50 (Trypanosoma brucei [4]) was greater than 10 µM and the inhibition at 10 µM (Toxoplasma gondii [5]) was less than 1%.

For `CN(C)CCCOc1ccc(-c2ccccc2)cc1`, the EC50 (Leishmania mexicana [1]) was 0.4 µM, the EC50 (NIH3T3) was greater than 10 µM and the inhibition at 10 µM (Pneumocystis carinii [2]) was 95%. It also gave an EC50 (Trypanosoma cruzi [3]) of 1 µM, an EC50 (Trypanosoma brucei [4]) greater than 10 µM and an inhibition at 10 µM (Toxoplasma gondii [5]) of 17%. The IC50 (Lanosterol synthase) was 2.5 µM.

`O=C(c1ccc(Cl)cc1)c1ccc(OCCN2CCN(CCO)CC2)cc1` was tested, and the EC50 (Leishmania mexicana [1]) was 0.4 µM, the EC50 (NIH3T3) was greater than 10 µM and the inhibition at 10 µM (Pneumocystis carinii [2]) was 95%. It also gave an EC50 (Trypanosoma cruzi [3]) of 1 µM, an EC50 (Trypanosoma brucei [4]) greater than 10 µM and an inhibition at 10 µM (Toxoplasma gondii [5]) of 28%.

With `C=CCN(C)CCCCCCOc1ccc(C(=O)c2ccc(Cl)cc2)c(F)c1` the IC50 (Lanosterol synthase) was 0.049 µM.

With `OCCN1CCN(CCOc2ccc(-c3ccccc3)cc2)CC1` the EC50 (Leishmania mexicana [1]) was 0.4 µM, the EC50 (NIH3T3) was greater than 10 µM and the inhibition at 10 µM (Pneumocystis carinii [2]) was 95%. It also gave an EC50 (Trypanosoma cruzi [3]) of 1 µM, an EC50 (Trypanosoma brucei [4]) greater than 10 µM and an inhibition at 10 µM (Toxoplasma gondii [5]) of 28%.

For `O=C(c1ccc(Cl)cc1)c1ccc(OC2CN3CCC2CC3)cc1` (centres undefined), the EC50 (Leishmania mexicana [6]) was 0.4 µM, the EC50 (NIH3T3) was greater than 10 µM and the inhibition at 10 µM (Pneumocystis carinii [7]) was 81%. For the same compound, the EC50 (Trypanosoma cruzi [8]) was 1 µM, the EC50 (Trypanosoma brucei [9]) was greater than 10 µM and the inhibition at 10 µM (Toxoplasma gondii [10]) was 48%. The IC50 (Lanosterol synthase) was 0.16 µM.

From ChEMBL document CHEMBL1145110, “Oxidosqualene cyclase inhibitors as antimicrobial agents” (J Med Chem, 2003)
